Earlier results, collected in patent US20130108552A1, “NEAR-IR INDOCYANINE GREEN DOPED MULTIMODAL SILICA NANOPARTICLES AND METHODS FOR MAKING THE SAME” (UNIVERSITY OF FLORIDA RESEARCH FOUNDATION INC., priority 2010, published 2013).

Tests used:
[1] = tested on: nonspecific plasma proteins
[2] = in H2O

critical micelle concentration [2]: about 0.32 mg/mL
SMILES: CC1(C)C(/C=C/C=C/C=C/C=C2\N(CCCCS(=O)(=O)O)c3ccc4ccccc4c3C2(C)C)=[N+](CCCCS(=O)(=O)[O-])c2ccc3ccccc3c21 [ICG, indocyanine green]
binding to nonspecific plasma proteins [1]: strongly bind to nonspecific plasma proteins
